Assay results: ChEMBL document CHEMBL5030549, “Design, synthesis and biological evaluation of new thiazole scaffolds as potential TRPM8 antagonists” (Bioorg Med Chem Lett, 2021)
Activity calls are given as the source filed them. No cut-off for these calls is given here.

What was measured:
[1] = molecular target: Transient receptor potential cation channel subfamily V member 1 (Homo sapiens) (UniProt Q8NER1); assay: Antagonist activity at human TRPV1 inhibition of capsaicin-induced channel activation at <= 30 uM; details: dose microM <=30
[2] = molecular target: T1, Transient receptor potential cation channel subfamily M member 8 (Homo sapiens, UniProt Q7Z2W7); assay: Antagonist activity at recombinant human TRPM8 transfected in HEK293 cells assessed as assessed as inhibition of icilin-induced intracellular calcium flux at 0.5 uM relative to control; type: cell-based; details: filed as antagonist
Target sequence in this assay (Q7Z2W7 whole entry, looked up): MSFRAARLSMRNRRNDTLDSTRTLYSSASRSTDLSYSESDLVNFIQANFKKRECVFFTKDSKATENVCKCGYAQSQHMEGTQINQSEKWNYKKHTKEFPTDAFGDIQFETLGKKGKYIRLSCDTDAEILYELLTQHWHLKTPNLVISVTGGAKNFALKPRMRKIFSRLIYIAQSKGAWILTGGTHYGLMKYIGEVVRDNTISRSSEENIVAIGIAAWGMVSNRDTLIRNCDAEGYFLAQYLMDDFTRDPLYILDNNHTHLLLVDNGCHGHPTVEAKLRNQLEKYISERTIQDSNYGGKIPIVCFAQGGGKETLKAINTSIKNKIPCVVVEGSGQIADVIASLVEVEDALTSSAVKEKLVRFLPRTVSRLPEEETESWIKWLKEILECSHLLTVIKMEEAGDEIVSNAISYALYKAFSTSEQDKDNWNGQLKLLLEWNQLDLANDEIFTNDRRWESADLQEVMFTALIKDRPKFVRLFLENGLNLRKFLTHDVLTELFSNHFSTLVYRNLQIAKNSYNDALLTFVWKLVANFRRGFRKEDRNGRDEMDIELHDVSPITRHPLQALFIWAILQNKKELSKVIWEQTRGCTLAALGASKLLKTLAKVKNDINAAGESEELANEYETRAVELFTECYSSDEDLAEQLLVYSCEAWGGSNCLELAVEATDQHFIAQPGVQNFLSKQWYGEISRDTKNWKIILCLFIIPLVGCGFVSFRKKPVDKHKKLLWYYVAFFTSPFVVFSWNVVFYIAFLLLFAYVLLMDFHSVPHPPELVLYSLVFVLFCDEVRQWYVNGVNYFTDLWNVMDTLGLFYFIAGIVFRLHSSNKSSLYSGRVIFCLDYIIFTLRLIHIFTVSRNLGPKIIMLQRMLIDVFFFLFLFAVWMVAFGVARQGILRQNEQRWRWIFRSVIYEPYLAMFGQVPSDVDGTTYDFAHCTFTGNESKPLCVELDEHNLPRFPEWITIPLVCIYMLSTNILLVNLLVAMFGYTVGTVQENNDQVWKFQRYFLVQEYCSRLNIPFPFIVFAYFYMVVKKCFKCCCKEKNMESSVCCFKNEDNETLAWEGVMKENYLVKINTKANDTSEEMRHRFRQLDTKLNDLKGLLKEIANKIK

[3] = Metabolic stability in human liver microsomes assessed as intrinsic clearance in presence of NADPH; type: ADME, Microsome
[4] = molecular target: T1, Transient receptor potential cation channel subfamily M member 8; assay: Antagonist activity at recombinant human TRPM8 transfected in HEK293 cells assessed as assessed as inhibition of icilin-induced intracellular calcium flux; type: cell-based
Target sequence in this assay (Q7Z2W7 whole entry): as the sequence (Q7Z2W7 whole entry, looked up) above

HepG2 = assay: Cytotoxicity against human HepG2 cells assessed as reduction in cell viability at 100 uM; type: cell-based; details: hepg2, 100 µM
[5] = Metabolic stability in human liver microsomes assessed as half life in presence of NADPH; type: ADME, Microsome

Sequence of Transient receptor potential cation channel subfamily V member 1 (Homo sapiens) (Q8NER1 whole entry): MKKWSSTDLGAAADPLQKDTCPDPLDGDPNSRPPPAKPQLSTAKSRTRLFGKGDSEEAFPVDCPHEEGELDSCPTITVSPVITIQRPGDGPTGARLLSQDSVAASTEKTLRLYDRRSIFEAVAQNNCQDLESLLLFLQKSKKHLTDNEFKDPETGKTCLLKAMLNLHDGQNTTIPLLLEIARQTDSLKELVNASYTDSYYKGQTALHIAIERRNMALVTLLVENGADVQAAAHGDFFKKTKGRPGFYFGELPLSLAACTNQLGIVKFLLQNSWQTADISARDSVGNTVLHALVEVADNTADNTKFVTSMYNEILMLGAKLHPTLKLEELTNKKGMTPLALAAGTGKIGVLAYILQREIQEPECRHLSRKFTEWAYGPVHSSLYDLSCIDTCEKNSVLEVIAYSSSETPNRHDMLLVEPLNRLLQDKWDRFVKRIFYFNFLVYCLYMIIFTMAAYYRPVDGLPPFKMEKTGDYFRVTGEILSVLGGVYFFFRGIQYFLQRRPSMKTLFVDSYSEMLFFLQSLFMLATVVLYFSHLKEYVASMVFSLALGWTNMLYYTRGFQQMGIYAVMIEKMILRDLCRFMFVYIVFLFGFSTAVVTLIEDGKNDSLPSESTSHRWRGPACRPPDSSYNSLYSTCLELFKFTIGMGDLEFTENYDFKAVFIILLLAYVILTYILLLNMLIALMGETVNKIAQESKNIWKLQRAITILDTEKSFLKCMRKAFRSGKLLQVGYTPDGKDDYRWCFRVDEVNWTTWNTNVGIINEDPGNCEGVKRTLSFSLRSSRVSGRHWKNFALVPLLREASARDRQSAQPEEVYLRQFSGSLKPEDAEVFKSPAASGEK

| Structure (SMILES) | Activity [1] | also measured |
| --- | --- | --- |
| COc1cc(CN(CCN)C(=O)c2cccs2)ccc1OCc1ccccc1 |  | inhibition [2]: 98.3% |
| CCOC(=O)/C=C/Oc1nc(-c2ccc(C)cc2)sc1C(=O)OCC | inactive | half-life [5]: < 10 min; IC50 [4]: 1130 nM |
| CCOC(=O)CCCC#Cc1nc(-c2cccc(F)c2)sc1C(=O)OCC | inactive |  |

Second part, led by results:

| Activity [1] | Structure (SMILES) | also measured |
| --- | --- | --- |
| inactive | CCOC(=O)CCCc1[nH]nnc1-c1nc(-c2cccc(F)c2)sc1C(=O)OCC |  |
| inactive | O=C(O)CCCc1cc2nc(-c3cccc(F)c3)sc2c(=O)[nH]1 |  |
| inactive | O=C(O)CCCc1cc2nc(-c3cccc(F)c3)sc2c(=O)o1 |  |
| inactive | CCOC(=O)c1sc(-c2cccc(F)c2)nc1C#CCCCC(=O)O | CLH [3]: 0.13 mL/min/g; IC50 [4]: 4060 nM; Activity (HepG2): Non-Toxic |
